Consider five molecules from patent US4310682A, “Halo-salicylanilide” (priority 1979, dated 1982).

What all share (type): cell-based
For assay [1], the system named is Escherichia coli NIHJ JC-2. Put plainly: MIC, agar medium containing the compound. Conditions: bacterium No. 1, 37° C., 4 hours. The procedure: (§1) In order to test antifungal and bactericidal activity of halo-salicylanilide obtained in above mentioned Examples, following bacteria and fungi are employed.
No. 1 Escherichia coli NIHJ JC-2
(§2) Bacteria No. 1 to No. 4 are respectively cultured in Hart Infusion bouillon medium at 37° C. for 20 hours and resulting medium liquids are employed for said test. Fungi No. 5 to No. 7 are respectively cultured in Sabouraud agar medium and 10^6 cell/ml of cell dispersing liquids obtained from said medium are employed for said test.

Assay [2] relates to Pseudomonas aeruqinosa NC-5. Put plainly: MIC, agar medium containing the compound. Particulars: bacterium No. 2, 37° C., 4 hours. The procedure: as §1
No. 2 Pseudomonas aeruqinosa NC-5
as §2

In assay [3] the test system is Candida albicans ATCC 10259. Put plainly: MIC, Sabouraud agar medium containing the compound. Particulars: fungus No. 5, 20° C., 14 days. The procedure: as §1
No. 5 Candida albicans ATCC 10259
as §2

Assay [4] deals with Aspergillus flavus IFO 8558. Put plainly: MIC, Sabouraud agar medium containing the compound. Conditions: fungus No. 6, 20° C., 14 days. The procedure: as §1
No. 6 Aspergillus flavus IFO 8558
as §2

For assay [5], the system named is Trichophyton rubrum IFO 9185. Put plainly: MIC, Sabouraud agar medium containing the compound. Conditions: fungus No. 7, 20° C., 14 days. The procedure: as §1
No. 7 Trichophyton rubrum IFO 9185
as §2

Assay [6] relates to Candida albicans ATCC 10259. Kind of assay: Multiplying state after removal to compound-free medium (scanning electron microscope). Particulars: for multiplying state of the fungi after removal to culture medium without the compound: first cultured in medium containing the compound, then removed, FIG. 1 and FIG. 2.
Assay [7] concerns Staphylococcus aureus FDA-209-P. Put plainly: MIC, agar medium containing the compound. Particulars: bacterium No. 3, 37° C., 4 hours. The procedure:
as §1
No. 3 Staphylococcus aureus FDA-209-P
as §2

Assay [8] concerns Bacillus subtilis PCI-219. Put plainly: MIC, agar medium containing the compound. Particulars: bacterium No. 4, 37° C., 4 hours. The procedure: as §1
No. 4 Bacillus subtilis PCI-219
as §2

In assay [9] the test system is bacteria No. 1 to No. 4 and fungi No. 5 to No. 7. Kind of assay: Antifungal and bactericidal activity test, overall assessment of Table 8. Conditions: referring to Table 8. The procedure:
as §1, §2
Referring now to Table 8, in said Examples the halo-salicylanilides provided have respectively remarkable higher antifungal and bactericidal activity than that of the contrasts proposed and said halo-salicylanilidesare especially effective on bacteria No. 3 and No. 4, and fungi No. 5, No. 6 and No. 7. This testifies that alkyl group of 2'-position of the halo-salicylanilides is significant for the activities of the compound. […] Especially the halo-salicylanilides having fluorine in 5-position are very useful for agricultural medicines.

Turning to `O=C(Nc1ccc(Cl)cc1)c1cc(I)cc(I)c1O` [Contrast No. 2, reference compound], the “MIC (Minimum Inhibitory Concentration)” value in assay [1] is greater than 100; in assay [2], greater than 100; in [3], 50; in assay [4], greater than 100; in assay [5], 50. Further, the “multiplying state of the fungi after removal to culture medium without the compound” value in assay [6] is “again starts to multiply”.
With `Cc1cc(Cl)ccc1NC(=O)c1cc(I)ccc1O` [compound 3, 5-iodo-2'-methyl-4'-chloro salicylanilide], the “MIC (Minimum Inhibitory Concentration)” value in assay [1] is listed as greater than 100; in assay [7] it was 0.75; in assay [8] it was 1.5; in assay [3], 6.3; in [4] it was 6.3; in assay [5] it was 6.3. Further, the “multiplying state of the fungi after removal to culture medium without the compound” value in [6] is recorded as “does not start to multiply”. Besides, the “destruction of the cell membranes of the fungi” value in [6] (scanning electron microscope, FIG. 2) is “destruction of the cell membranes of the fungi is observed”. In assay [9], the “antifungal and bactericidal activity (assessment in words)” value (shortened to “antifungal and bactericidal activity”) is “remarkable antifungal and bactericidal activity”.
In the case of `Cc1cc(Br)ccc1NC(=O)c1cc(I)ccc1O` [compound 5, 5-iodo-2'-methyl-4'-bromo salicylanilide], the “MIC (Minimum Inhibitory Concentration)” value in assay [1] is listed as greater than 100; in assay [7], 0.37; in assay [8] it was 0.75; in assay [3], 3.2; in [4] it was 3.2; in [5] it was 3.2. In addition, the “antifungal and bactericidal activity” value in assay [9] is “remarkable antifungal and bactericidal activity”.
Regarding `CCc1cc(Cl)ccc1NC(=O)c1cc(I)ccc1O` [compound 6, 5-iodo-2'-ethyl-4'-chloro salicylanilide], the “MIC (Minimum Inhibitory Concentration)” value in assay [1] is given as greater than 100; in [7], 0.75; in assay [8], 0.75; in assay [3], 6.3; in assay [4], 3.2; in assay [5], 3.2. For the same molecule, the “antifungal and bactericidal activity” value in [9] is “remarkable antifungal and bactericidal activity”.
For `CC(=O)Oc1ccc(I)cc1C(=O)Nc1ccc(Br)cc1C` [compound 13, 5-iodo-2'-methyl-4'-bromo acetylsalicylanilide], the “MIC (Minimum Inhibitory Concentration)” value in assay [1] was greater than 100; in assay [2], 100; in assay [7] it was 0.2; in [8] it was 0.4; in assay [3] it was 100; in assay [5], 12.5. In assay [9], the “antifungal and bactericidal activity” value is “remarkable antifungal and bactericidal activity”.
